Assays:
Format in all cases: biochemical
[1] = molecular target: T1, Gox0644 (Gluconobacter oxydans, UniProt Q5FT75); test: NADPH-dependent α-ketocarbonyl reductase activity assay (rate of decrease of NADPH at 340 nm); details: Table 3; 10 mM substrate, 40 mM K-phosphate buffer pH 7.0, 0.05 mM NAD(P)H, 30 °C; U/mg = µmol x min^-1 x mg protein^-1
Description: Reactions were induced by addition of enzyme or substrate. One unit was defined as the amount of enzyme activity catalyzing the conversion of 1 µmol of pyridine nucleotide per min at 30 °C. NMR Analysis of Biotransformation Products: Biotransformations were extracted with equal volumes of CDCl3. and ^13C NMR spectra were recorded on a Bruker Avance 300 DPX spectrometer operating at 300 MHz for ^1H NMR and at 75 MHz for ^13C NMR, respectively.
Reactions were induced by addition of enzyme or substrate. One unit of activity was defined as the amount of enzyme activity catalyzing the conversion of 1 µmol of pyridine nucleotide per min at 30 °C.
The standard reaction mixture (1 ml) for the reduction reactions of substrates contained 10 mM substrate, 40 mM potassium phosphate buffer (K-phosphate buffer) pH 7.0, 0.05 mM NAD(P)H, and the enzyme unless otherwise noted. Reactions were induced by addition of enzyme or substrate. One unit of activity was defined as the amount of enzyme activity catalyzing the conversion of 1 µmol of pyridine nucleotide per min at 30 °C. […] Table 3: Enzymatic activities with α-diketones, α-ketoaldehydes and α-ketoesters

[2] = molecular target: T1, Gox0644; test: Coupled-enzyme biotransformation with cofactor regeneration, product determined by NMR (regio- and stereoselectivity)
Description: (§1) Measurement of enzyme activity: NADPH-dependent α-ketocarbonyl reductases were assayed by a routine method used for NAD(P)-linked enzymes by recording the rate of decrease of NADPH at 340 nm (ε = 6.22 mM^-1 x cm^-1)) with substrates at 30 °C. The reaction mixture (1 ml) for reduction of α-ketocarbonyl substrates contained 10 mM substrate, 40 mM potassium phosphate buffer pH 7.0, 0.025 mM NAD(P)H and the enzyme. Reactions were induced by addition of enzyme or substrate. One unit was defined as the amount of enzyme activity catalyzing the conversion of 1 µmol of pyridine nucleotide per min at 30 °C. NMR Analysis of Biotransformation Products: Biotransformations were extracted with equal volumes of CDCl3. and ^13C NMR spectra were recorded on a Bruker Avance 300 DPX spectrometer operating at 300 MHz for ^1H NMR and at 75 MHz for ^13C NMR, respectively. Spectra were processed using Bruker TonSpin 1.3 for Windows software and calibrated to the residual solvent peak of CDCl3 (δH = 7.26 / δC = 77.0).
(§2) Determination of the absolute configuration of the biotransformation product 2-hydroxy-pentan-3-one using chiral NMR shift solvents: Chiral NMR shift reagent (R,R)- and (S,S)-bis-α-methylbenzylamine-para-methyl (BMBA-p-Me) was prepared with small modifications according to the method reported by Kobayashi, Y et al., Tetrahedron Lett. 44: 7489-7491 (2003). In brief, the method of Marshall, J.A. and Mikowski, A. M., Org. Lett. 8:4375-4378 (2006) was used to synthesize 1,3-dibromo-2-methylpropane from 1,3-dihydroxy-2-methylpropane. Diisopropylethylamine (25.5 g), triphenylphosphine (20.1 g) and CBr4 (25.5 g) were sequentially added to a stirring solution of […] in 100 ml CH2Cl2 at 0 °C. The reaction was stirred for 3-4 h at 0 °C and concentrated under reduced pressure to give a green-brown oil. The oil was dissolved in diethyl ether and water (100 ml each) and the aqueous layer was extracted three times with diethyl ether. The organic extracts were combined and washed with water and brine, and dried over MgSO4. The reaction was concentrated under reduced pressure and applied to flash chromatography on silica 60 (230-400 mesh, 100% cyclohexane). Fractions containing the 1,3-dibromo-2-methylpropane product were combined (as judged by Si-TLC [100% cyclohexene]) and concentrated under reduced pressure resulting in a brown-yellow oil. The dibromopropane oil was used for the synthesis of (R,R)- and (S,S)-BMBA-p-Me as described by (Kobayashi, Y. et al., Org. Lett. 4(3):411-414 (2002). The crude oil was distilled by Kugelrohr at 240 °C to give crude BMPA-p-Me (yellow oil). BMBA-p-Me was purified by HPLC using a C18 column (Waters Xterra, 250 x 4.6 mm) at a flow rate of 0.8 ml min^-1 and a 40 min linear gradient of 50-100 % MeOH at ambient temperature. Fractions were concentrated under reduced pressure and BMBA-p-Me was identified by ^1H-NMR (colorless hygroscopic oil).
(§3) Approximately 7.5 mg of the extracted product 2-hydroxy-pentan-3-one was added to 15 mg (R,R)- or (S,S)-BMBA-p-Me (dissolved in 200-300 µl CDCl3) and analyzed by ^13C NMR with the readout adjusted to 0.001 ppm/point (sw = 239 ppm, td = 512k) (Fiorentino, A. et al., Tetrahedron., 62:8952-8958 (2006)). The absolute configuration was determined based on the sign of ΔδRR-SS (δ(R,R)-BMBA-p-Me - δ(S,S)-BMBA-p-Me) for the α-carbons adjacent to the hydroxymethine unit as formulated in the following model shown in Scheme 3 (valid for saturated secondary alcohols of acyclic and cyclic compounds): [drawing 7]
(§4) Cofactor regeneration: A prerequisite for the production of α-hydroxycarbonyl compounds is the regeneration of the expensive coenzymes and the stability of the protein catalysts. By coupling two coenzyme-dependent enzyme reactions, NADPH can be continuously regenerated. […]

[3] = molecular target: T2, Gox1615 (Gluconobacter oxydans, UniProt Q5FQJ0); test: as above
T2 sequence (Q5FQJ0 1-332): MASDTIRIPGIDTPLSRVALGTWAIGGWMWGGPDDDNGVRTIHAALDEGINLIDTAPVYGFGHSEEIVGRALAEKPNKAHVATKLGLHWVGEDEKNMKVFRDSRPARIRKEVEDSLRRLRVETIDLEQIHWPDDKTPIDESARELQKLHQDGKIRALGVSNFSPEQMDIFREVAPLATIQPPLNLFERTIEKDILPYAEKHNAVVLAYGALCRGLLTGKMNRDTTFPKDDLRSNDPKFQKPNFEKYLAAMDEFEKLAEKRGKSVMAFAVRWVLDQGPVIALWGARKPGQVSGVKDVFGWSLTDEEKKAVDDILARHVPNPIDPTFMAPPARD
Description: as §1, §2, §3, §4

[4] = NMR with chiral solvent BMBA-p-Me

Question: Which “Gox0644 U/mg*” value [1] does the source give for `CCC(=O)C(C)=O` [2,3-pentanedione] here?
Answer: 69.6 U/mg

Question: What about the “Product (stereoselective reduction)” value [2, 4] of the same compound?
Answer: 2R-hydroxy-pentan-3-one

Question: What about the “Product (regioselective reduction)” value ([2]; determined by NMR analysis) of the same compound?
Answer: 2-hydroxy-pentan-3-one

Question: And the “Product (stereoselective reduction)” value [3, 4]?
Answer: 2S-hydroxy-pentan-3-one

Question: What about the “Product (regioselective reduction)” value ([3]; determined by NMR analysis) of the same compound?
Answer: 2-hydroxy-pentan-3-one

Reference: patent EP2316926B1, “Enantioselective production of alpha-hydroxy carbonyl compounds” (priority 2009, dated 2011)
